From patent US6753323B2, “Topical administration of amifostine and related compounds” (MedImmune Oncology, Inc., priority 1998, dated 2004)

What was measured:
Assay type in all cases: cell-based
[1] = tested on: five compendial organisms; experiment: Microbial growth inhibition, room temperature storage, summary over all test organisms
Experimental: (§1) Amifostine was studied for its ability to inhibit microbial growth. Clear 10 cc vials, stoppers and seals were sterilized for use in the study. Two separate procedures were performed: a refrigerated storage study (2° to 8° C.) and a room temperature storage study (20° to 25° C.). For each test portion, positive controls were prepared for each organism by placing 9.5 mL sterile 0.9% sodium chloride into separate sterile vials and inoculating each with 10^3 to 10^4 of one of the test organisms. In addition, amifostine test specimens were prepared for each test portion by reconstituting six Ethyol® vials with 0.9% sodium chloride, the contents of each of these vials were then transferred to clear sterile vials to allow for easier visual examination. One vial was designated as a negative control, and each of the remaining five vials was inoculated with 10^3 to 10^4 of one of the test organisms. All vials were protected from light throughout the test to simulate the amber Ethyol® vial.
Positive controls, product test specimens, and a negative control were prepared. At this time, population counts were performed on each positive control. Population counts were also performed on positive controls and product test specimens at 24 and 48 hours. These samples were diluted with sterile water and plated in duplicate with a target of 30 to 300 colonies per plate. […]

[2] = tested on: Candida albicans; experiment: Microbial growth inhibition, refrigerated storage (2°-8° C.); conditions: refrigerated 2°-8° C.; for % Change: vs theoretical 0 hr count
Experimental: as §1
(§2) Positive controls, product test specimens, and a negative control were prepared. At this time, population counts were performed on each positive control. Population counts were also performed on positive controls and product test specimens at 24, 48 and 72 hours. These samples were diluted with sterile water and plated in duplicate with a target of 30 to 300 colonies per plate. Candida albicans, Escherichia coli, Pseudomonas aeruginosa, and Staphylococcus aureus were overpoured with TSA agar and incubated at 30-35° C. for 48 hours. Aspergillus niger was overpoured with Sabouraud agar and incubated at 20-25° C. for 48 hours.

[3] = tested on: Staphylococcus aureus; experiment: as above; conditions: S. aureus, refrigerated 2°-8° C.; for % Change: vs theoretical 0 hr count
Experimental: as §1, §2

[4] = tested on: Pseudomonas aeruginosa; experiment: as above; conditions: P. aeruginosa, refrigerated 2°-8° C.; for % Change: vs theoretical 0 hr count
Experimental: as §1, §2

[5] = tested on: Escherichia coli; experiment: as above; conditions: E. coli, refrigerated 2°-8° C.; for % Change: vs theoretical 0 hr count
Experimental: as §1, §2

Structure (SMILES): NCCCNCCSP(=O)(O)O [amifostine, S-2-(3-aminopropylamino)ethyl dihydrogen phosphorothioate]
- concentration of viable microorganisms at 24 hours [1]: reduced in four of the five compendial organisms
- CFU/mL in Amifostine ([2]; 24 hr): 3.99 × 10^3 CFU/mL
- % Change ([2]; 24 hr): −63.0%
- CFU/mL in Amifostine ([2]; 48 hr): 2.09 × 10^3 CFU/mL
- % Change ([2]; 48 hr): −80.6%
- CFU/mL in Amifostine ([2]; 72 hr): 7.13 × 10^3 CFU/mL
- % Change ([2]; 72 hr): −34.0%
- CFU/mL in Amifostine ([3]; 24 hr): 4.75 × 10^1 CFU/mL
- % Change ([3]; 24 hr): −50.0%
- CFU/mL in Amifostine ([3]; 48 hr): 4.75 × 10^1 CFU/mL
- % Change ([3]; 48 hr): −50.0%
- CFU/mL in Amifostine ([3]; 72 hr): 4.75 × 10^1 CFU/mL
- % Change ([3]; 72 hr): −50.0%
- CFU/mL in Amifostine ([4]; 24 hr): 3.04 × 10^3 CFU/mL
- % Change ([4]; 24 hr): −20.0%
- CFU/mL in Amifostine ([4]; 48 hr): 1.76 × 10^3 CFU/mL
- % Change ([4]; 48 hr): −53.7%
- CFU/mL in Amifostine ([4]; 72 hr): 1.85 × 10^3 CFU/mL
- % Change ([4]; 72 hr): −51.3%
- CFU/mL in Amifostine ([5]; 24 hr): 2.85 × 10^2 CFU/mL
- % Change ([5]; 24 hr): −70.0%
- CFU/mL in Amifostine ([5]; 48 hr): 0 CFU/mL
- % Change ([5]; 48 hr): −100%
- CFU/mL in Amifostine ([5]; 72 hr): 0 CFU/mL
- % Change ([5]; 72 hr): −100%
